Laboratory results published in patent publication US20260191827A1, “COMPOUNDS FOR USE IN THE TREATMENT OF DISEASES AND CONDITIONS ASSOCIATED WITH NEURODEGENERATIVE DYSFUNCTION” (OnTrack Therapeutics Limited, priority 2022, published 2026).
Counter-ions that a name gives are not always drawn.

Columns and labels:
[1] = system: scopolamine-induced impairment in cognition; conditions: normal healthy humans, donepezil 10 mg; cited from earlier work
[2] = system: scopolamine-induced cognitive deficit in mice; test: Scopolamine-induced cognitive deficit, T-maze spontaneous alternation
Protocol: 60 male CD-1 mice (Janvier; Le Genest St Isle—France) were used for the study, with 10 animals per group.
Animals in the API groups were pre-treated (p.o.) once a day for 30 days, the last treatment was given 1 h before the T-maze test.
Compound of Formula I or its vehicle was administered at 5 ml/kg using p.o. route. The vehicle was 5% DMSO/0.5% methylcellulose in water. Fresh compound solution was prepared daily as following: the required amount of compound will be dissolved in 100% DMSO and then the required amount of 0.5% methylcellulose in water was added.
On the day of the T-maze, the last treatment was given 1 h before the task.
Donepezil (donepezil hydrochloride) was prepared in saline at a concentration of 0.03 mg/ml and was given p.o. at a dosage volume of 10 ml/kg 1 h before the T-maze trial start.
Scopolamine was prepared in saline (vehicle) at a concentration of 0.089 mg/ml (free base) and was given i.p. at a dosage volume of 10 ml/kg 30 min before the T-maze trial start.
The T-maze consists of 2 choice arms and 1 start arm mounted to a square centre. Sliding doors are provided to close specific arms during the force choice alternation task.
The experimental protocol consists of one single session, which starts with 1 “forced-choice” trial, followed by 14 “free-choice” trials. In the first “forced-choice” trial, the animal was confined for 5 s in the start arm and then was released while either the left or right goal arm was blocked by closing the sliding door. The animal then negotiated the maze, and eventually entered the open goal arm, and returned to the start position.
Immediately after the return of the animal to the start position, the left or right goal door was opened, and the animal was allowed to choose freely between the left and right goal arm (“free choice trials).
The animal was considered to have entered an arm when it placed its four paws in the arm.
A session was terminated, and the animal was removed from the maze as soon as 14 free-choice trials had been performed or 10 min have elapsed, whatever event occurred first.
The percentage of spontaneous alternations were calculated as number of spontaneous alternations divided by 14 possible free choice.
Statistical analysis was assessed using Anova followed by Fischer's Protected Least Significant Difference for pairwise comparison. p level <0.05 was deemed significant.

[3] = system: sub-chronic PCP-induced deficits in recognition memory in rats; test: Sub-chronic PCP-induced deficit in novel object recognition (NOR) paradigm; conditions: for Acquisition total exploration time / Retention total exploration time: mean ± s.e.m.
[4] = target: tropomyosin receptor kinase B (TrkB) (Homo sapiens, UniProt Q16620); conditions: known from background; cited from earlier work
Sequence of tropomyosin receptor kinase B (TrkB) (Q16620 32-822, species assumed): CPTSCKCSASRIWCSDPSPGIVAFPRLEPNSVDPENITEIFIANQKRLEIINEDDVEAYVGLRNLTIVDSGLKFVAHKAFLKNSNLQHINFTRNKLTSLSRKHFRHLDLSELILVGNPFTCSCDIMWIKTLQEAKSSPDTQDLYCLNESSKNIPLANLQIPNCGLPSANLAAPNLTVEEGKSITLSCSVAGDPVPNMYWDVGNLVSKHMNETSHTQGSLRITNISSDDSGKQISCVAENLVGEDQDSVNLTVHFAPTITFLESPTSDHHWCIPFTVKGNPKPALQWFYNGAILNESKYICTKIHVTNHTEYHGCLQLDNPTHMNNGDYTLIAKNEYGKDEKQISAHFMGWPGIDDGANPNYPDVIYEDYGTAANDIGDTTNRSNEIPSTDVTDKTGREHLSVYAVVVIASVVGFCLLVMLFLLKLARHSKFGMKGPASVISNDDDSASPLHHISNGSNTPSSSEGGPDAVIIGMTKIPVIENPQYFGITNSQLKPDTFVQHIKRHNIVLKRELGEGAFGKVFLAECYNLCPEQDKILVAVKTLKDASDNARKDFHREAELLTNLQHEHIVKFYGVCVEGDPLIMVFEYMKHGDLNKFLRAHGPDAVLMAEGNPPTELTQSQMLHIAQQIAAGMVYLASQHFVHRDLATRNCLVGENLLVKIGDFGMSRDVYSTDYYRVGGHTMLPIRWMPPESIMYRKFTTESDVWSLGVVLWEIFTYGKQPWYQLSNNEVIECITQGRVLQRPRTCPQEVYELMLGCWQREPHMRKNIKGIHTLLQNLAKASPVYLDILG

[5] = system: 5XFAD mice; conditions: repeated administration, WO2020/033604; cited from earlier work
[6] = system: animal model of Alzheimer's disease; conditions: low dose; Chen et al., 2021; cited from earlier work
[7] = 20-day phase (day 20), scPCP rats, acute risperidone 0.1 mg/kg i.p. 60 min before test
[8] = acute phase (day 1), scPCP rats, risperidone 0.1 mg/kg i.p. 60 min before test
[9] = 20-day once-daily treatment, scPCP rats, 10 mg/kg p.o.
[10] = 20-day once-daily treatment, scPCP rats, 30 mg/kg p.o.
[11] = acute treatment, scPCP rats, 10 mg/kg p.o. 120 min before test
[12] = acute treatment, scPCP rats, 30 mg/kg p.o. 120 min before test

COc1cc2c(cc1OC)C(=O)C(CC1CCN(Cc3ccccc3)CC1)C2 (stereo not drawn) [Donepezil, donepezil hydrochloride, reference compound]
scopolamine-induced impairment in cognition (power of attention, continuity of attention, quality of working memory, speed of memory) [1]: significantly attenuated | Spontaneous alternation (%) ([2]; Scopolamine 0.89 mg/kg i.p., Donepezil 0.3 mg/kg p.o. 1 h before T-maze, hydrochloride): 65.0% | Spontaneous alternation (%) ([2]; Scopolamine 0.89 mg/kg i.p., Donepezil 0.3 mg/kg p.o. 1 h before T-maze, listed as donepezil, hydrochloride): 65% | effect on scopolamine-induced decline in cognitive function ([2]; donepezil 0.3 mg/kg, statistically significant): ameliorated

Cc1nc2n(c(=O)c1CCN1CCC(c3noc4cc(F)ccc34)CC1)CCCC2 [Risperidone, risperidone, reference compound]
Acquisition total exploration time [3, 7]: 25.5 ± 3.4 s | Retention total exploration time [3, 7]: 17.8 ± 1.1 s | Acquisition total exploration time [3, 8]: 22.81 ± 4.03 s | Retention total exploration time [3, 8]: 23.10 ± 2.92 s | discrimination index (DI) ([3]; acute phase, risperidone 0.1 mg/kg i.p., versus scPCP without treatment and test compound (FIG. 4)): higher | rescue of deficits induced by scPCP in NOR ([3]; risperidone dosed acutely): able to rescue the deficits induced by scPCP

O=c1cc(-c2ccccc2)oc2c(O)c(O)ccc12 [tropoflavin, 7,8-dihydroxyflavone]
TrkB activity [4]: potent and selective agonist

N#Cc1ccc(-c2cc(=O)c3ccc4[nH]c(C(F)(F)F)nc4c3o2)cc1 [compound of Formula I, 4-(6-oxo-2-(trifluoromethyl)-3,6-dihydrochromeno [7,8-d]imidazol-8-yl)benzonitrile]
synaptic loss [5]: able to prevent synaptic loss | dose effect in Alzheimer's disease animal model [6]: saturation effect | spontaneous alternations in comparison to vehicle in scopolamine-treated mice ([2]; 30 days treatment prior to scopolamine, statistically significant): increased percentage of spontaneous alternations | Spontaneous alternation (%) ([2]; Saline (healthy mice), Compound of Formula I high dose 10 mg/kg p.o. once a day for 30 days, 10 mg/kg): 64% | Spontaneous alternation (%) ([2]; Saline (healthy mice), Compound of Formula I high dose 10 mg/kg p.o. once a day for 30 days, listed as Compound of Formula I, 10 mg/kg): 64.3% | Spontaneous alternation (%) ([2]; Scopolamine, Compound of Formula I high dose 10 mg/kg p.o. once a day for 30 days, 10 mg/kg): 56% | Spontaneous alternation (%) ([2]; Scopolamine, Compound of Formula I high dose 10 mg/kg p.o. once a day for 30 days, listed as Compound of Formula I, 10 mg/kg): 55.7% | Spontaneous alternation (%) ([2]; Scopolamine, Compound of Formula I low dose 5 mg/kg p.o. once a day for 30 days, 5 mg/kg): 56% | Spontaneous alternation (%) ([2]; Scopolamine, Compound of Formula I low dose 5 mg/kg p.o. once a day for 30 days, listed as Compound of Formula I, 5 mg/kg): 55.7% | effect on cognition in healthy animals ([2]; healthy mice, 10 mg/kg, 30 days): did not impair cognition in healthy animals | Acquisition total exploration time [3, 9]: 24.6 ± 3.4 s | Retention total exploration time [3, 9]: 19.0 ± 1.4 s | Acquisition total exploration time [3, 10]: 26.1 ± 3.1 s | Retention total exploration time [3, 10]: 20.8 ± 1.2 s | discrimination index (DI) ([3]; 20-day treatment, 30 mg/kg, compared to animals without treatment, P<0.015 (FIG. 8)): statistically significant increase | amount of time spent exploring the familiar and novel object in the retention trial ([3]; 20-day treatment, scPCP rats, 10 & 30 mg/kg p.o., P<0.01 (FIG. 7)): dose dependent statistically significant effect | Acquisition total exploration time [3, 11]: 21.75 ± 2.46 s | Retention total exploration time [3, 11]: 22.55 ± 1.60 s | Acquisition total exploration time [3, 12]: 25.49 ± 3.04 s | Retention total exploration time [3, 12]: 26.18 ± 2.11 s | amount of time exploring the novel or familiar object in the retention trial ([3]; acute treatment, scPCP rats, 10 & 30 mg/kg p.o. (FIG. 3)): not shown to have a difference | rescue of deficits induced by scPCP in NOR ([3]; dosing for a 20-day period): able to rescue the scPCP in a dose dependent manner
